PubChem BioAssay (NCI)
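These data come from cells grown in 96-well plates and exposed to compound for 48 hours at five concentrations. TGI denotes the concentration required for complete inhibition of growth.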

Columns and labels:
Experiment in all cases: NCI-60 cell line screen, 48 h
A549 NSCLC = test system: A549 NSCLC
ACHN renal = test system: ACHN renal
HCT-15 colon = test system: HCT-15 colon
HL-60(TB) leukemia = test system: HL-60(TB) leukemia
HOP-92 NSCLC = test system: HOP-92 NSCLC
MALME-3M melanoma = test system: MALME-3M melanoma
MDA-MB-435 = test system: MDA-MB-435
MDA-N = test system: MDA-N
RPMI-8226 leukemia = test system: RPMI-8226 leukemia
SNB-19 CNS = test system: SNB-19 CNS
UACC-257 melanoma = test system: UACC-257 melanoma

Row | SMILES | TGI (A549 NSCLC) [µM] | TGI (ACHN renal) [µM] | TGI (HCT-15 colon) [µM] | TGI (HL-60(TB) leukemia) [µM] | TGI (HOP-92 NSCLC) [µM] | TGI (MALME-3M melanoma) [µM] | TGI (MDA-MB-435) [µM] | TGI (MDA-N) [µM] | TGI (RPMI-8226 leukemia) [µM] | TGI (SNB-19 CNS) [µM] | TGI (UACC-257 melanoma) [µM]
1 | C=CC(Br)(CBr)CCC(Br)C(C)C (centres undefined) | 28.5 | 20.6 | 17.9 | 2.04 | 23.2 | 28.1 | 33.5 | 6.37 | 4 | 23.4 | 24
2 | CC(=O)N(CN1C(=O)CCC1C(=O)O)c1ccccc1Cl (centres undefined) | > 100 | > 100 | > 100 | > 100 | > 100 | > 100 | > 100 | > 100 | > 100 | > 100 | > 100
3 | CN1C(=O)N(C)C2(CCN(CCCCCCF)CC2)C1=O | > 100 | > 100 | > 100 | > 100 | – | > 100 | 71.1 | > 100 | > 100 | > 100 | > 100
4 | O=C1c2cc([N+](=O)[O-])sc2C(=O)c2ccsc21 | 3.51 | 0.768 | 0.815 | – | 0.443 | 0.327 | 0.334 | 0.378 | 0.751 | 3.33 | 0.641
5 | Cc1sc2nc3n(c(=O)c2c1C)N=C(c1ccc([N+](=O)[O-])cc1)CS3 | > 100 | > 100 | > 100 | > 100 | > 100 | > 100 | > 100 | > 100 | > 100 | – | > 100
6 | CCN(CC)CCNc1ccc2ncn3c4cc(=O)ccc4c(O)c1c23 | 12.1 | 10.6 | 17 | 11.9 | 6.78 | 14.9 | – | – | 9.97 | 32 | 17.8
7 | COCCNC1CCC2(SCCS2)c2[nH]c3ccccc3c21 (centres undefined) | > 100 | > 100 | > 100 | 45.8 | 50.3 | – | 62.1 | 57.9 | 41.4 | > 100 | 39.5
8 | O=C(O)CC(O)(C(=O)O)C(O)C(=O)O (centres undefined) | > 1000 | > 1000 | > 1000 | > 1000 | – | > 1000 | > 1000 | > 1000 | > 1000 | > 1000 | > 1000
9 | O=C1N[C@@H](COc2ccc(C=Nc3ccc(CCc4ccc(N=Cc5ccc(OC[C@@H]6COC(=O)N6)cc5)cc4)cc3)cc2)CO1 | > 100 | > 100 | > 100 | > 100 | – | > 100 | > 100 | > 100 | > 100 | > 100 | > 100
10 | CCCCNC(=S)Nc1nc(C(=O)NNC(=O)c2ccccc2)cs1 | 55.2 | 37.3 | 26.1 | > 100 | > 100 | 38.8 | 47.8 | 39.4 | > 100 | – | 37
11 | CC(=O)OCC1OC(N2C(S)=C(C#N)C(c3ccco3)C(C(C)=O)=C2c2ccccc2)C(OC(C)=O)C(OC(C)=O)C1OC(C)=O (centres undefined) | > 100 | – | > 100 | > 100 | 95.2 | > 100 | > 100 | > 100 | > 100 | > 100 | > 100
12 | CC1CC[C@@]2(OC1)OC1C[C@H]3[C@@H]4CCC5CC(O)CC[C@]5(C)[C@H]4C/C(=N\N(C)C)[C@]3(C)C1[C@@H]2C (some centres undefined) | > 100 | > 100 | 60.3 | 70.5 | > 100 | > 100 | 58.2 | 41.4 | > 100 | 88.4 | > 100
13 | Cc1cccc(NC2=NCCO2)c1Cl | > 100 | > 100 | > 100 | > 100 | > 100 | > 100 | > 100 | – | > 100 | > 100 | > 100
14 | C#CCCCC(=O)N(C(=O)CS(=O)CC)c1ccccc1 (centres undefined) | > 100 | > 100 | > 100 | > 100 | > 100 | > 100 | > 100 | > 100 | – | > 100 | > 100
15 | O=C(Oc1cccc(Cl)c1)c1cc2cc(CCl)ccc2oc1=O | > 100 | 38.5 | > 100 | 82 | 43.1 | 33.5 | > 100 | > 100 | > 100 | > 100 | 31.3
16 | Brc1cccc[n+]1-c1ccc2cc(-[n+]3ccccc3Br)ccc2c1 | > 100 | 37.2 | > 100 | > 100 | – | 72.7 | > 100 | – | 63.8 | > 100 | > 100
17 | c1ccc(CCn2cncn2)cc1 | > 100 | > 100 | > 100 | > 100 | > 100 | > 100 | – | – | – | > 100 | > 100
18 | C=CCC(CNC(=O)OCc1ccccc1)OC(=O)OCc1ccccc1 (centres undefined) | > 100 | > 100 | > 100 | > 100 | > 100 | – | > 100 | > 100 | 68.1 | > 100 | > 100
19 | CC1CN=C(c2ccc(COc3ccc(C4=NCC(C)N4)cc3)cc2)N1 (centres undefined) | > 100 | > 100 | > 100 | > 100 | > 100 | > 100 | > 100 | > 100 | > 100 | > 100 | 68.3
20 | O=S(=O)(/N=C(\NO)Nc1ccc(Cl)cc1)c1ccc(-c2ccccn2)s1 | > 100 | > 100 | > 100 | > 100 | > 100 | 96.8 | > 100 | 94.5 | – | > 100 | > 100
21 | COc1ccc(N2C(=O)C3CC4=CC(=O)C[C@H]4[C@H]32)cc1 (some centres undefined) | > 100 | > 100 | > 100 | – | – | – | > 100 | 82.1 | > 100 | > 100 | > 100
